The results in this text go back to patent US20160331716A1, “MOLECULAR TARGETS FOR HEALING OR TREATING WOUNDS” (UNIVERSITY COLLEGE CARDIFF CONSULTANTS LIMITED, priority 2011, published 2016).

The subject of one data set is db/db mice. As to the kind of experiment: In vivo efficacy test, ear-punch wound healing in diabetic db/db. The note with it: for rate of wound healing: 2-100 mg/ml. The source says: (§1) The diabetic strain of db/db was obtained from Harlan. 4-6 weeks old with body weight at 20 g were used. Creation of a wound was according to a recently described method. Briefly, after being housed for a week, the db/db were first ear-pieced using an puncher, in order to create a wound (hole) of 1 mm in diameter. The following day after wound creation, all the db/db were weighed and the wound was photographed using a digital camera. Treatment was given systemically (by IP injection) or topically (by manually applying the compound in gel into the wound area). Both treatments were given every other day, twice weekly or weekly. Images were obtained weekly. The size of the wounds was determined using an image analysis software and is shown here as the area in pixels.
Formulation of the Compounds. • 1. For systemic application, Sodium stibogluconate was dissolved in BSS and diluted in the same for the required concentration. The solutions were prepared that each 100 ul contained the correct amount of compounds and was aliquatted and stored as such at −20° C. until used. The compound was injected every other day by the IP route. • 2. For topical application, we used two carrier gels that are currently used in wound care, namely Bactroban and Aquagel. From the concentrated master stock of Sodium stibogluconate, 100 ul of the stock solution was mixed with 2 grams of the respective gels, followed by low speed homogenisation using a hand held homogeniser, for 2 minutes. […] For use, small amount (150 ul) of the gel was applied to the wound area and gently rubbed in using fingers. • 3. […] Sodium stibogluconate increased the rate of wound healing without producing any side effects. • Sodium stibogluconate was given systemically, at 100 uM.
Using the same db/db mice, we further tested the possible dose response by applying stibogluconate at 2 mg/ml. 20 mg/ml and 100 mg/ml, using topical applications. At the same time, we tested two treatment methods: applying the agent on a weekly basis or twice weekly basis. We determined the size of the wound on a weekly basis. […] Using a Two-way ANOVA (Holm-Sidak model), it was shown that in both treatment regimes, there was a highly significant difference between the treatment group and control group, p=0.013, […] and 0.009, control vs 2 mg/ml, 20 mg/ml and 100 mg respectively, for the twice weekly treatment, and p=0.05, 0.013, 0.009 for the weekly treatment group.

In a further data set the test system is HaCaT cells. Kind of data set: ECIS wounding (migration) assay, HaCaT keratinocytes. The format is cell-based, human. Particulars: over a range of concentrations. The method, then: (§2) Three models of ECIS instrument were used: ECIS 9600 for screening and ECIS1600R and ECIS Z8 for modelling. In all systems, 8W10 arrays were used (Applied Biophysics Inc., Troy, N.Y., USA) (Giaever and Keese 1991, Kees et al 2004). Following treating the array surface with a Cysteine solution (or array stabilization procedure for ECIS Z8), the arrays were incubated with complete medium for 1 hr Electric changes were continuously monitored for up to 24 hrs. In the 9600 system, the monitoring was at fixed […]. In the 1600R and ECIS Zθ systems, cells were monitored at 62.5, 125, 250, 500, 1,000, 2,000, 4,000, 8,000, 16,000, 32,000 and 64,000 Hz. The adhesion was analysed by the integrated Rb modelling method.
Using the ECIS Theta96 model, we tested the response of cells to stibugluconate over a range of concentrations. HaCaT cells responded over the range of concentrations tested in that there was an increase in cell adhesion between 0.16-20 uM with 20 uM showing the maximum effects, FIGS. 5 & 6. Likewise, the cells also responded to stibogluconate by increasing their migration from concentrations as low as 160 nM to 100 uM, FIGS. 7, 8 & 9.

Data set [1] can be described thus: Tolerance in db/db during wound healing study. The format is in vivo, mice. Particulars: systemic, every other day, two week period. The method, then:
(§3) The first tolerance test was conducted on the CD-1 athymic (Charles River Laboratories). Briefly, CD-1 of 4-6 weeks old, 20 g in weight, were housed in filter topped cages. Sodium stibogluconate a known PTPRK inhibitor was injected, via the intraperitoneal route, on a daily basis. The compound was given at 100 final concentration (equivalent to ˜10 mg/kg body weight) in 100 ul in volume. CD-1 were observed daily, weighed twice weekly. An additional tolerance and efficacy test was carried out using the db/db strain.
as §1
Formulation of the Compounds. • 1. For systemic application, Sodium stibogluconate was dissolved in BSS and diluted in the same for the required concentration. The solutions were prepared that each 100 ul contained the correct amount of compounds and was aliquatted and stored as such at −20° C. until used. The compound was injected every other day by the IP route. • 2. For topical application, we used two carrier gels that are currently used in wound care, namely Bactroban and Aquagel. From the concentrated master stock of Sodium stibogluconate, 100 ul of the stock solution was mixed with 2 grams of the respective gels, followed by low speed homogenisation using a hand held homogeniser, for 2 minutes. […]

The next data set deals with HECV cells. Kind of data set: ECIS cell adhesion assay, HECV endothelial cells. The format is cell-based, human. The method, then:
HaCaT, a human keratinocyte cell line was purchased from the German Cancer Centre, HECV, a human vascular endothelial cells from Interlab, Milan, Italy, DB/DB mice from Harlan UK.
HaCaT and HECV cells, which were positive for PTPRK, were transfected with anti-PTPRK transgenes by way of electroporation (270 v). After selection with a selection medium (DMEM with 10 ug/ml blasticidin) for 10 days, clones of selected cells were pooled and used for subsequent analysis.
as §2

A short description of data set [2]: In vivo tolerance test in CD-1 athymic. Particulars: intraperitoneal, daily, ~10 mg/kg body weight. The protocol: as §3
The first tolerance test was conducted the CD-1 athymic (Charles River Laboratories). Briefly, CD-1 of 4-6 weeks old, 20 g in weight, were housed in filter topped cages. Sodium stibogluconate was injected, via the intraperitoneal route, on a daily basis. The compound was given at 100 final concentration (equivalent to 10 mg/kg body weight) in 100 ul in volume. CD-1 were observed daily, weighed twice weekly. An additional tolerance and efficacy test was carried out using the db/db strain.

With `O.O.O.O.O.O.O.O.O.O=C([O-])[C@@H]1[O][Sb]2([O-])([O][Sb]34([OH])[O][C@H]([C@H](O)CO)[C@H]([O]3)[C@H](C(=O)[O-])[O]4)[O][C@H]([C@H](O)CO)[C@@H]1[O]2.[Na+].[Na+].[Na+]` [stibogluconate, Sodium stibogluconate], the “wound size versus control group” value in the data set with db/db mice (systemic (IP) at 100 uM, after one week) is on record as “smaller than the control group”. In addition, in the data set with db/db mice (topical), the “twice weekly versus weekly administration, rate of wound healing” value was “marginally more effective”. Further, the “rate of wound healing” value with db/db mice (topical, twice weekly application) is recorded as “rapid rate of wound healing”. Moreover, in the data set on db/db mice (topical, weekly application), the “rate of wound healing” value is on record as “rapid rate of wound healing”. The “effect of interrupting the treatment regimen on healing” value in the data set on db/db mice (treatment removed between third and fourth week, weekly or twice weekly regimen) is recorded as “adversely affects the healing process”. For the same compound, in the data set with HaCaT cells, the “effect on the migration of the cells (keratinocytes)” value is “concentration dependent effect”. Further, in data set [1], the side effects result is given as “did not observe any side effects”, the tolerance entry is “well tolerated” and the weight loss result is listed as “no weight loss”. Further, in the data set on HECV cells (HECV/WT treated with stibogluconate), the “cell adhesion to the surface of the electrode (ECIS)” value was “rapid adhesion”. Further, the “response to stibogluconate of HECV/PTPRKrib cells compared with HECV/WT” value with HECV cells (PTPRK knock-down cells, ECIS adhesion) is “markedly reduced”. Further, in data set [2], the tolerance in vivo result is reported as “Well Tolerated”.
